Test results from US4578475A, “Novel D-homosteroids” (Hoffman-La Roche Inc., priority 1983, dated 1986).

Experiments:
[1] = target: T1, Δ^5 -isomerase/3β-hydroxysteroid dehydrogenase (Rattus norvegicus, UniProt P22071); test: Inhibition of the formation of progesterone in vitro (14C-pregnenolone, rat ovary microsomes); assay type: biochemical; conditions: 0.5 μg protein, 250 pmol 14C-pregnenolone, 0.4 mg NAD+, 30 minutes, 37° C., pH 7.4, read-out: IC50 (concentration of the test substance at which the enzyme activity amounts to 50% of the maximum value)
T1 construct: from tissue; host or cells: rat ovary microsomes
T1 sequence (P22071 1-373): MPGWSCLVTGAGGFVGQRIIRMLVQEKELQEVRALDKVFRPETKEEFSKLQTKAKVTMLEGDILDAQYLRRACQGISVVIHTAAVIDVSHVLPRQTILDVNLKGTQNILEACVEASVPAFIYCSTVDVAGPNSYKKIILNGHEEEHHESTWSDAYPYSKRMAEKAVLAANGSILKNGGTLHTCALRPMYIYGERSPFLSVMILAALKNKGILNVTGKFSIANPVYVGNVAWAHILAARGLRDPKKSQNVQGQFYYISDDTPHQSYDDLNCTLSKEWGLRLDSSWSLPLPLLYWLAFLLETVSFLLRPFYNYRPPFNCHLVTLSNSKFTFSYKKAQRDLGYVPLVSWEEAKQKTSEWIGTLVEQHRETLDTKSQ
Method: The activity of the D-homosteroids of formula I as inhibitors of Δ^5 -isomerase/3β-hydroxysteroid dehydrogenase was determined in the following experimental procedures:
Rat overies were homogenized in 0.05 M Na2 HPO4 buffer (pH 7.2) which contained 0.25 M sucrose and 0.05 M dithiothreitol. The microsomes obtained after centrifugation were suspended in 0.05 M Na2 HPO4 buffer (pH 7.4) which contained 0.001 M EDTA. This microsome preparation was assayed firstly for enzymatic activity by measuring the increase of the optical density at 340 nm by the reduction of NAD^+. Thereafter, aliquot portions (0.5 μg of protein) were incubated in 1.8 ml of buffer for 30 minutes at 37° C. with 250 pmol of ^14 C-pregnelonone, 0.4 mg of NAD^+ and different concentrations of the test substance dissolved in the minimum amounts of dimethyl sulphoxide. The reaction was interrupted by the addition of methylene chloride. After extraction and evaporation of the solvent, the radioactive metabolites were separated on silica gel-aluminium plates with benzene/acetone (85:15). The radioactivity was measured by means of a scintillation counter.

[2] = tested on: pregnant female albino rats; test: Interceptive activity in rats (pregnant rats, serum progesterone, living foetuses, resorptions, vacant implantation positions); assay type: in vivo, rat; conditions: for Serum progesterone 3 h later: orally or intramuscularly on 10th day of pregnancy; for Living foetuses, n (number of animals) / Resorption, n (number of animals) / Vacant implantation positions, n (number of animals) / Vacant implantation positions, x (mean of the observations) / Living foetuses, x (mean of the observations) / Resorption, x (mean of the observations): orally or intramuscularly on 10th day, killed on 15th day
Text: Female albino rats were kept under controlled conditions, the synchronicity of the cycle being monitored by daily vaginal douching and subsequent cytological investigation. At proestrus the animals were brought together with male, fertile rats. The successful insemination was checked on the following morning and this day was denoted as the 1st day of the pregnancy. The pregnant animals then received the test substances as a suspension in a standard vehicle (0.5% carboxymethylcellulose, 0.4% TWEEN 80, 0.9% benzyl alcohol and 0.9% NaCl in water) orally or intramuscularly on the 10th day. The animals were killed on the 15th day. The blood was collected and the uteri were investigated for living foetuses, resorptions and vacant implantation positions. The serum hormone concentrations were determined radio-immunologically.

SMILES | IC50 [1] | Serum progesterone 3 h later ([2]; 15 mg/kg) | Living foetuses, n (number of animals) ([2]; 15 mg/kg) | Resorption, n (number of animals) ([2]; 15 mg/kg) | Vacant implantation positions, n (number of animals) ([2]; 15 mg/kg) | Vacant implantation positions, x (mean of the observations) ([2]; 15 mg/kg) | Serum progesterone 3 h later ([2]; 7.5 mg/kg) | Living foetuses, n (number of animals) ([2]; 7.5 mg/kg) | Resorption, n (number of animals) ([2]; 7.5 mg/kg) | Resorption, x (mean of the observations) ([2]; 7.5 mg/kg) | Vacant implantation positions, n (number of animals) ([2]; 7.5 mg/kg) | Vacant implantation positions, x (mean of the observations) ([2]; 7.5 mg/kg) | also measured
CC1(C)C2=CC[C@H]3[C@@H]4CC=C[C@H](O)[C@@]4(C)CC[C@@H]3[C@@]2(C)Cc2cn[nH]c21 [Example 5, 4,4-dimethyl-2'H-D-homo-androsta-2,5,16-trieno[3,2-c]pyrazol-17aβ-ol] | 0.8 nM | – | – | – | – | – | – | – | – | – | – | – | –
CC1(C)C(=O)[C@H](C#N)C[C@@]2(C)C1=CC[C@@H]1[C@@H]2CC[C@@]2(C)[C@H]1CC=C[C@@]21CCC(=O)O1 [Example 19, 2α-cyano-4,4-dimethyl-3-oxo-D-homo-17aα-pregna-5,16-diene-21,17a-carbolactone] | – | 9 ng/mL | 0 | 0 | 8 | 13 | – | – | – | – | – | – | –
CC1(C)C(=O)[C@H](C#N)C[C@@]2(C)C1=CC[C@@H]1[C@@H]2CC[C@@]2(C)[C@H]1CC=C[C@]2(C)O [Example 17, 17aβ-hydroxy-4,4,17a-trimethyl-3-oxo-D-homo-androsta-5,16-diene-2α-carbonitrile] | 6.5 nM | – | – | – | – | – | 29 ng/mL | 0 | 2 | 15 | 4 | 11 | Serum progesterone 3 h later ([2]; 3.75 mg/kg): 32 ng/mL; Living foetuses, n (number of animals) ([2]; 3.75 mg/kg): 2; Living foetuses, x (mean of the observations) ([2]; 3.75 mg/kg): 5; Resorption, n (number of animals) ([2]; 3.75 mg/kg): 5; Resorption, x (mean of the observations) ([2]; 3.75 mg/kg): 11; Vacant implantation positions, n (number of animals) ([2]; 3.75 mg/kg): 1; Vacant implantation positions, x (mean of the observations) ([2]; 3.75 mg/kg): 13
CC(=O)OC1=C(C#N)C[C@]2(C)[C@H]3CC[C@]4(C)[C@@H](OC(C)=O)C=CC[C@H]4[C@@H]3CC[C@]23O[C@H]13 [Example 22, 3,17aβ-diacetoxy-4α,5α-epoxy-D-homo-5α-androsta-2,16-diene-2-carbonitrile] | 0.9 nM | – | – | – | – | – | – | – | – | – | – | – | –
CC(=O)O[C@H]1C=CC[C@H]2[C@@H]3CC=C4C(C)(C)c5nn(C(C)=O)cc5C[C@]4(C)[C@H]3CC[C@]12C [Example 12, 1'-acetyl-4,4-dimethyl-1'H-D-homo-androsta-5,16-dieno[3,2-c]pyrazol-17aβ-yl acetate] | 6 nM | – | – | – | – | – | – | – | – | – | – | – | –
CCCCC1(O)C=CCC2C3CC=C4C(C)(C)c5[nH]ncc5CC4(C)C3CCC21C [Example 7, 17a-butyl-4,4-dimethyl-2'H-D-homo-androsta-2,5,16-trieno[3,2-c]pyrazol-17aβ-ol] | 6 nM | – | – | – | – | – | – | – | – | – | – | – | –
CC1(C)C(=O)C(=CNO)C[C@@]2(C)C1=CC[C@@H]1[C@@H]2CC[C@@]2(C)[C@H]1CC=C[C@]2(C)O [Example 21, 17aβ-hydroxy-2-[(hydroxyamino)methylene]-4,4,17a-trimethyl-D-homo-androsta-5,16-dien-3-one] | – | 17 ng/mL | 1 | 0 | 6 | 13 | 24 ng/mL | 3 | 6 | 10 | 2 | 10 | Living foetuses, x (mean of the observations) ([2]; 7.5 mg/kg): 6; Living foetuses, x (mean of the observations) ([2]; 15 mg/kg): 15
CC1(C)C2=CC[C@@H]3[C@H](CC[C@@]4(C)[C@H]3CC=C[C@]4(C)O)[C@@]2(C)Cc2cnoc21 [Example 2, 4,4,17a-trimethyl-D-homo-androsta-2,5,16-trieno[2,3-d]isoxazol-17aβ-ol] | – | 35 ng/mL | 0 | 0 | 6 | 12 | 39 ng/mL | 0 | 0 | – | 6 | 13 | Serum progesterone 3 h later ([2]; 3.75 mg/kg): 87 ng/mL; Living foetuses, n (number of animals) ([2]; 3.75 mg/kg): 3; Living foetuses, x (mean of the observations) ([2]; 3.75 mg/kg): 12; Resorption, n (number of animals) ([2]; 3.75 mg/kg): 2; Resorption, x (mean of the observations) ([2]; 3.75 mg/kg): 9; Vacant implantation positions, n (number of animals) ([2]; 3.75 mg/kg): 2; Vacant implantation positions, x (mean of the observations) ([2]; 3.75 mg/kg): 13
CC1(C)C(=O)[C@H](C#N)C[C@@]2(C)C1=CC[C@@H]1[C@@H]2CC[C@@]2(C)[C@H]1CCC[C@]2(C)O [Example 14, 17aβ-hydroxy-4,4,17a-trimethyl-3-oxo-D-homo-androst-5-ene-2a-carbonitrile] | – | 20 ng/mL | 1 | 3 | 4 | 13 | 20 ng/mL | 1 | 3 | 12 | 4 | 12 | Living foetuses, x (mean of the observations) ([2]; 7.5 mg/kg): 3; Living foetuses, x (mean of the observations) ([2]; 15 mg/kg): 12; Resorption, x (mean of the observations) ([2]; 15 mg/kg): 14
CC1(C)C2=CC[C@@H]3[C@H](CC[C@@]4(C)[C@H]3CCC[C@]4(C)O)[C@@]2(C)Cc2cnoc21 [Example 3, 4,4,17a-trimethyl-D-homo-androsta-2,5-dieno[2,3-d]-isoxazol-17aβ-ol] | – | 29 ng/mL | 4 | 6 | 3 | 13 | 25 ng/mL | 4 | 5 | 6 | 2 | 3 | Living foetuses, x (mean of the observations) ([2]; 7.5 mg/kg): 9; Living foetuses, x (mean of the observations) ([2]; 15 mg/kg): 9; Resorption, x (mean of the observations) ([2]; 15 mg/kg): 3
CC1(C)C2=CC[C@@H]3[C@H](CC[C@@]4(C)[C@H]3CC=C[C@]4(C)O)[C@@]2(C)Cc2cn[nH]c21 [Example 6, 4,4,17a-trimethyl-2'H-D-homo-androsta-2,5,16-trieno[3,2-c]-pyrazol-17aβ-ol] | 0.4 nM | – | – | – | – | – | – | – | – | – | – | – | –
C[C@]1(O)C=CC[C@H]2[C@@H]3CC[C@@]45O[C@]4(C)C(=O)[C@H](C#N)C[C@]5(C)[C@H]3CC[C@@]21C [Example 25, 4α, 5-epoxy-17aβ-hydroxy-4,17a-dimethyl-3-oxo-D-homo-5α-androst-16-ene-2α-carbonitrile] | 7 nM | – | – | – | – | – | – | – | – | – | – | – | –
